Test results as given in article PMC5267515, “In Vitro and Clinical Evaluations of the Drug-Drug Interaction Potential of a Metabotropic Glutamate 2/3 Receptor Agonist Prodrug with Intestinal Peptide Transporter 1” (Drug Metabolism and Disposition, 2017).
Read-outs that look alike come from different tables or passages of the source. Non-standard residues stand in square brackets, D forms with d. Residues, ends and D or L forms follow the SMILES beside them. Sar = CNCC(=O)O

T1: PEPT1 (Homo sapiens, UniProt P46059)
T1 sequence (P46059 1-708): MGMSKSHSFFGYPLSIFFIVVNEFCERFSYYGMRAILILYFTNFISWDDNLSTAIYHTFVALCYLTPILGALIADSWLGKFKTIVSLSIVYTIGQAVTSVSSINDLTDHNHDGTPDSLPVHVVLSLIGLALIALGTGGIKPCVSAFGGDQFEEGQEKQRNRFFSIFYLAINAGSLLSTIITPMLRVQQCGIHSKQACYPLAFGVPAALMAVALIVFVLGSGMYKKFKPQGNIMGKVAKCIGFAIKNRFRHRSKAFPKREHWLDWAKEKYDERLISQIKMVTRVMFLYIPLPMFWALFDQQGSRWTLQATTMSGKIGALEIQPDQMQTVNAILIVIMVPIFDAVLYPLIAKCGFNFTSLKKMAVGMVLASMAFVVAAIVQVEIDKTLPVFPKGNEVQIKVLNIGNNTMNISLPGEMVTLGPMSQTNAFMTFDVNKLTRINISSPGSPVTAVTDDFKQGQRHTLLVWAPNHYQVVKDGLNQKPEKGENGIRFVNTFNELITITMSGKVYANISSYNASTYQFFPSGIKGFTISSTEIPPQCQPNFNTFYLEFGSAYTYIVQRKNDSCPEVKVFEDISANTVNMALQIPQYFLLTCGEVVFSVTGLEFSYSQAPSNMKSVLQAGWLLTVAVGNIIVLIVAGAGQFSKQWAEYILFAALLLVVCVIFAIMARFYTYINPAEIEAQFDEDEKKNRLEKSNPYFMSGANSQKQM


What was measured:
[1] = biological target: T1, PEPT1; assay: Inhibition of PEPT1-mediated [14C]LY2140023 uptake in transfected HeLa cells; conditions: for IC50: 10 μM [14C]LY2140023
Protocol: Briefly, cells were seeded at a density of 65,000 cells/ml in 24-well plates. After achieving 50 to 80% confluency, cells were transfected with SLC15A1, gene for PEPT1 (accession number NM_005073) inserted in pcDNA3.1 or pcDNA3.1 empty vector (Invitrogen) using Fugene 6 (Roche, Indianapolis, IN) following the manufacturer’s protocol.
The solubility of compounds at these concentrations was checked by using a fiber-optic light source.
where [I] is an inhibitor concentration in micromoles. Top is the highest % activity in the absence of inhibitor, and S is the slope factor.

[2] = biological target: T1, PEPT1; design: expressed in transfected cells; host or cells: HeLa cells (ATCC), transiently transfected with Fugene 6, pcDNA3.1 vector; method as in Zhang et al. (2004); conditions: Gly-Sar 50 μM; ref Zhang et al. (2004); read-out: IC50 against Gly-Sar; cited from earlier work
[3] = biological target: T1, PEPT1; design: expressed in transfected cells; method as in Han, 1999; conditions: CHO cells transfected with PEPT1, ref Han, 1999, cited from earlier work
[4] = biological target: T1, PEPT1; assay: System validation: proton- and concentration-dependent uptake of [14C]Gly-Sar in PEPT1 transfected HeLa cells; assay type: in vitro ADME; design: expressed in transfected cells; host or cells: HeLa cells (ATCC), transiently transfected with Fugene 6, pcDNA3.1 vector
Protocol: (§1) Assessment of both the proton-dependent uptake ([Liang et al., 1995]) and the concentration-dependent uptake of [^14C]Gly-Sar by the transiently transfected HeLa cells was used to validate the in vitro system. For proton-dependent uptake, [^14C]Gly-Sar was measured 24 hour post transfection at either pH 6.0 or 7.5. PEPT1- and empty vector-transfected cells were incubated with [^14C]Gly-Sar (50 µM) for 5 minutes at room temperature. Cells transfected with empty pcDNA3.1 vector were used to measure the passive diffusion of [^14C]Gly-Sar. For concentration-dependent uptake, transfected cells were incubated with [^14C]Gly-Sar at concentrations from 50 to 5000 µM for 3 minutes at room temperature. For both proton- and concentration-dependent experiments, cells were washed three times with ice-cold phosphate-buffered saline after incubation with Gly-Sar to stop uptake and then lysed with 0.3 ml 1% triton X-100 in phosphate-buffered saline for 30 minutes at room temperature. Scintillation counting was conducted to determine radioactivity, and protein levels were determined by the bicinchoninic acid method ([Smith et al., 1985]).

[5] = substrate: CSCC[C@H](N)C(=O)N[C@@]1(C(=O)O)CS(=O)(=O)[C@H]2[C@H](C(=O)O)[C@H]21; assay: Concentration-dependent uptake of [14C]LY2140023 in PEPT1 transfected HeLa cells (kinetic parameters); assay type: in vitro ADME, human
Protocol: The concentration dependent uptake of [^14C]LY2140023, ranging from 5 up to 149 μM, was determined in PEPT1 transfected HeLa cells with 2- to 3-minute incubation at room temperature. The mean passive diffusion of prodrug at each concentration was obtained in parallel experiments in HeLa cells transfected with pcDNA3.1 empty vector and subtracted from the uptake mediated by PEPT1. The corrected data were fitted by WinNonlin Professional, version 5.0.1 or 5.3 (Certara, L.P., St. Louis, MO). The kinetic parameters of the prodrug mediated by PEPT1 were estimated by utilizing the following equation: [drawing 1] where S is the substrate concentration (μM), Vmax is the maximum uptake rate (pmol/min/mg), and Km is the concentration where uptake reaches a half of Vmax (μM).

[6] = substrate: CN(CC(=O)O)C(=O)CN; assay: System validation: proton- and concentration-dependent uptake of [14C]Gly-Sar in PEPT1 transfected HeLa cells; assay type: in vitro ADME, human; conditions: other: 50 μM to 5 mM, pH 6.0
Protocol: as §1

[7] = IC50 against LY2140023, first of two separate experiments
[8] = IC50 against LY2140023, second of two separate experiments
[9] = Mean IC50 against LY2140023, mean of two separate experiments
[10] = other: experiment 1, 5 to 146 μM LY2140023, PEPT1 transfected HeLa cells, parameter ± S.E.M.
[11] = other: experiment 2, 6.4 to 149 μM LY2140023, PEPT1 transfected HeLa cells, parameter ± S.E.M.

| IC50 [1, 7] [mM] | IC50 [1, 8] [mM] | IC50 [1, 9] [mM] | Molecule | IC50 [2] [mM] | also measured |
| --- | --- | --- | --- | --- | --- |
| 1.77 ± 0.21 | 1.56 ± 0.22 | 1.67 | NCC(=O)CCC(=O)O [ALA, 5-aminolevulinic acid] | 0.78 ± 0.26 | – |
| 4.05 ± 0.44 | 5.93 ± 1.47 | 4.99 | CC1=C(C(=O)O)N2C(=O)[C@@H](NC(=O)[C@H](N)c3ccc(O)cc3)[C@H]2SC1 [Cefadroxil] | 1.88 ± 0.35 | – |
| 11 ± 2.64 | 10.3 ± 0.42 | 10.7 | CCOC(=O)[C@H](CCc1ccccc1)N[C@@H](C)C(=O)N1CCC[C@H]1C(=O)O [Enalapril] | 2.13 ± 0.36 | – |
| 1.29 ± 0.26 | 0.69 ± 0.17 | 0.99 | CN(CC(=O)O)C(=O)CN [Gly-Sar, glycylsarcosine] (H-Gly-[Sar]-OH) | – | reported Vmax [3]: 3517 pmol/min/mg; Km ([3]; read-out: reported Km): 500 µM; transport at pH 6.0 relative to pH 7.5 ([4]; [14C]Gly-Sar 50 µM, 5 minutes, PEPT1 transfected HeLa cells): approximately five; passive diffusion rate ([4]; control cells (empty pcDNA3.1 vector)): 0.0972 µL/min/mg |
| 25.3 ± 2.57 | 26.5 ± 9.38 | 25.9 | N[C@@H](Cc1ccc(O)c(O)c1)C(=O)O [L- DOPA, L-DOPA] | 14.9 ± 2.45 | inhibition at 25000 µM ([1]; HeLa, read-out: inhibition of [14C]LY2140023 uptake): < 50% |
| – | – | – | PEPT1 (Homo sapiens) (protein, expressed in transfected cells; host or cells: HeLa cells (ATCC), transiently transfected with Fugene 6, pcDNA3.1 vector) MGMSKSHSFFGYPLSIFFIVVNEFCERFSYYGMRAILILYFTNFISWDDNLSTAIYHTFVALCYLTPILGALIADSWLGKFKTIVSLSIVYTIGQAVTSVSSINDLTDHNHDGTPDSLPVHVVLSLIGLALIALGTGGIKPCVSAFGGDQFEEGQEKQRNRFFSIFYLAINAGSLLSTIITPMLRVQQCGIHSKQACYPLAFGVPAALMAVALIVFVLGSGMYKKFKPQGNIMGKVAKCIGFAIKNRFRHRSKAFPKREHWLDWAKEKYDERLISQIKMVTRVMFLYIPLPMFWALFDQQGSRWTLQATTMSGKIGALEIQPDQMQTVNAILIVIMVPIFDAVLYPLIAKCGFNFTSLKKMAVGMVLASMAFVVAAIVQVEIDKTLPVFPKGNEVQIKVLNIGNNTMNISLPGEMVTLGPMSQTNAFMTFDVNKLTRINISSPGSPVTAVTDDFKQGQRHTLLVWAPNHYQVVKDGLNQKPEKGENGIRFVNTFNELITITMSGKVYANISSYNASTYQFFPSGIKGFTISSTEIPPQCQPNFNTFYLEFGSAYTYIVQRKNDSCPEVKVFEDISANTVNMALQIPQYFLLTCGEVVFSVTGLEFSYSQAPSNMKSVLQAGWLLTVAVGNIIVLIVAGAGQFSKQWAEYILFAALLLVVCVIFAIMARFYTYINPAEIEAQFDEDEKKNRLEKSNPYFMSGANSQKQM | – | Km ([5]; other: approximate value over experiments): 30 µM; Km [5, 10]: 28.66 ± 5.01 µM; Vmax [5, 10]: 0.000238 µmol/min/mg; Km [5, 11]: 29.98 ± 5.29 µM; Vmax [5, 11]: 0.000573 µmol/min/mg; Km [6]: 427.9 µM; Vmax [6]: 3975.3 pmol/min/mg |
